Measurements published in patent publication US11850287B2, “Heterocyclic acyl hydrazone linkers, methods and uses thereof” (Ontario Institute for Cancer Research (OICR), priority 2017, dated 2023).

Assays:
[1] = Half-life of model acyl hydrazones in a simulated lysosomal environment (pH 4.5); format: physicochemical; settings: simulated lysosomal environment (acidic buffer)
Source text: Ranging from the intracellularly readily cleavable linkers such as the acyl hydrazones to the relatively stable non-cleavable linkers, having the ability to tune the rate of release of the payload and to improve plasma stability provides opportunities not only to target a greater variety of diseased cells, but also to design agents tailored to achieve a better therapeutic window. Towards the goal of developing enhanced control of ADC linker stability, several model heterocyclic acyl hydrazones whose lability is modulated either by steric or stereoelectronic effects have been prepared.
Towards the goal developing enhanced control of ADC linker stability, several model cyclic acyl hydrazones whose lability is modulated by different substitutions have been prepared. Exemplary acyl hydrazones containing a substituted phenyl group adjacent to the imine carbon have been synthesized. […] Analogues of the heterocyclic linker compounds in Table 1 have been incorporated into linkers, using a similar strategy as employed in the linker synthesis in Mylotarg, as described in greater detail herein below

SKOV3 ovarian cells = assay: Cytotoxicity against SKOV3 ovarian cancer cells (ATP content, CellTiter-Glo); format: cell-based; settings: DAR ratio 3.39 (Synagis-SMCC-DM1), 3.50 (Trastuzumab-SMCC-DM1), 6.59 (IIIa), 6.99 (IIIc)
Procedure: SKOV3 ovarian cells are incubated with the effectors for a period corresponding to 2 to 3 times their estimated doubling time and the amount of viable cells is determine by measuring ATP content in the wells. […] All ADCs are diluted in DPBS to 6× the highest concentration tested, followed by 10 3-fold serial dilutions in DPBS for a total of 11 concentration points. Each point is added to triplicate wells. DPBS is added in wells to measure the maximum growth. Cells are diluted at their appropriate seeding density (ranging from 150 to 1000 cells per well) in complete media supplemented with glutamine 2 mM, serum and antibiotic cocktail. They are distributed in white, opaque bottom, tissue-culture treated 384 well plates and incubated for 24 hrs at 37° C.+5% CO2. […] Total ATP is measured using CellTiter-Glo reagent from Promega as recommended by the supplier. […] Signal output is measured on a luminescence plate reader (envision, Perkin Elmer) set at an integration time of 0.1 sec. […]
Each concentration point (S) is normalized to the negative control wells (NC) and expressed as % survival (NC-S/NC×100). Potency (IC50) and efficacy are calculated from a non-linear curve fit of the points versus log of the concentrations without constrain on the slope. Refined data are analysed using Prism software.

| half-life [1] [h] | Compound | IC50 (SKOV3 ovarian cells) [nM] |
| --- | --- | --- |
| 2.32 | CC(=O)N/N=C1\CCOc2ccc(F)cc21 [E] |  |
|  | Synagis-SMCC-DM1: negative control ADC | 9.64 |
